{"source": "patent US7807714B2", "about": "“Fungicidal compositions” (Syngenta Crop Protection, Inc., priority 2006, dated 2010)", "type_in_all_cases": "cell-based", "key": {"Rhizoctonia Solani": {"system": "Rhizoctonia Solani", "assay": "Activity against Rhizoctonia Solani (growth inhibition in PDB, microtiter plate, photometric)", "conditions": "48 hrs"}, "Fusarium Graminearum": {"system": "Fusarium Graminearum", "conditions": "48 hrs"}, "Pythium Ultimum": {"system": "Pythium Ultimum", "assay": "Activity against Pythium Ultimum (growth inhibition in PDB, microtiter plate, photometric)", "conditions": "48 hrs"}, "Pyrenophora Graminea": {"system": "Pyrenophora Graminea", "assay": "Activity against Pyrenophora Graminea (growth inhibition in PDB, microtiter plate, photometric)", "conditions": "72 hrs"}, "Gäumannomyces Graminis": {"system": "Gäumannomyces Graminis", "assay": "Activity Against Gäumannomyces Graminis (growth inhibition in PDB, microtiter plate, photometric)", "conditions": "72 hrs"}, "[1]": {"conditions": "0.0625 ppm (mg active ingredient/liter final medium)"}, "[2]": {"conditions": "0.125 ppm (mg active ingredient/liter final medium)"}, "[3]": {"conditions": "0.25 ppm (mg active ingredient/liter final medium)"}, "[4]": {"conditions": "0.03125 ppm (mg active ingredient/liter final medium)"}, "[5]": {"conditions": "0.5 ppm (mg active ingredient/liter final medium)"}, "[6]": {"conditions": "1.0 ppm (mg active ingredient/liter final medium)"}, "[7]": {"conditions": "0.0039 ppm (mg active ingredient/liter final medium)"}, "[8]": {"conditions": "0.0078 ppm (mg active ingredient/liter final medium)"}}, "note": "“And” between values parts separate entries of the source, which are not always exact repeats. Identical values can stand only once. Like-named read-outs stand apart in the source and are kept apart here.", "data": [{"smiles": "Cn1cc(C(=O)Nc2ccccc2C2CC2C2CC2)c(C(F)F)n1", "note": "(racemic) [Cpd A]", "values": [{"measurement": "Observed control in % (% Cobs)", "setting": "Rhizoctonia Solani; [1]", "value": 0, "unit": "%"}, {"measurement": "Observed control in % (% Cobs)", "setting": "Rhizoctonia Solani; [2]", "value": "22.8% and 23.0% and 29.3% and 40.2%"}, {"measurement": "Observed control in % (% Cobs)", "setting": "Rhizoctonia Solani; [3]", "value": 73.2, "unit": "%"}, {"measurement": "Observed control in % (% Cobs)", "setting": "Fusarium Graminearum; [4]", "value": 0, "unit": "%"}, {"measurement": "Observed control in % (% Cobs)", "setting": "Fusarium Graminearum; [1]", "value": "2.0% and 4.2%"}, {"measurement": "Observed control in % (% Cobs)", "setting": "Fusarium Graminearum; [2]", "value": 3.5, "unit": "%"}, {"measurement": "Observed control in % (% Cobs)", "setting": "Fusarium Graminearum; [3]", "value": "10.5% and 4.0%"}, {"measurement": "Observed control in % (% Cobs)", "setting": "Fusarium Graminearum; [5]", "value": 9.3, "unit": "%"}, {"measurement": "Observed control in % (% Cobs)", "setting": "Fusarium Graminearum; [6]", "value": "6.6% and 5.8%"}, {"measurement": "Observed control in % (% Cobs)", "setting": "Pythium Ultimum; [7]", "value": 0, "unit": "%"}, {"measurement": "Observed control in % (% Cobs)", "setting": "Pythium Ultimum; [8]", "value": 0, "unit": "%"}, {"measurement": "Observed control in % (% Cobs)", "setting": "Pythium Ultimum; [4]", "value": 0, "unit": "%"}, {"measurement": "Observed control in % (% Cobs)", "setting": "Pyrenophora Graminea; 0.002 ppm (mg active ingredient/liter final medium)", "value": 0, "unit": "%"}, {"measurement": "Observed control in % (% Cobs)", "setting": "Pyrenophora Graminea; [7]", "value": "1.3% and 3.3%"}, {"measurement": "Observed control in % (% Cobs)", "setting": "Pyrenophora Graminea; [8]", "value": 0, "unit": "%"}, {"measurement": "Observed control in % (% Cobs)", "setting": "Pyrenophora Graminea; 0.0156 ppm (mg active ingredient/liter final medium)", "value": 0, "unit": "%"}, {"measurement": "Observed control in % (% Cobs)", "setting": "Pyrenophora Graminea; [4]", "value": "0% and 5.8%"}, {"measurement": "Observed control in % (% Cobs)", "setting": "Pyrenophora Graminea; [1]", "value": 4.0, "unit": "%"}, {"measurement": "Observed control in % (% Cobs)", "setting": "Pyrenophora Graminea; [2]", "value": 0, "unit": "%"}, {"measurement": "Observed control in % (% Cobs)", "setting": "Pyrenophora Graminea; [6]", "value": 0, "unit": "%"}, {"measurement": "Observed control in % (% Cobs)", "setting": "Gäumannomyces Graminis; [2]", "value": 0, "unit": "%"}, {"measurement": "Observed control in % (% Cobs)", "setting": "Gäumannomyces Graminis; [5]", "value": 0, "unit": "%"}, {"measurement": "Observed control in % (% Cobs)", "setting": "Gäumannomyces Graminis; [6]", "value": 19.4, "unit": "%"}]}]}
